Measured values published in patent publication US20240041042A1, “1-(PYRIDYL)-5-AZINYLPYRAZOLE DERIVATIVES, AND THEIR USE FOR CONTROL OF UNDESIRED PLANT GROWTH” (Bayer Aktiengesellschaft, priority 2020, published 2024).
Where two headings read alike, the source gives them in different places.

What was measured:
Assay type in all cases: in vivo
[1] = test system: Abutilon theophrasti (ABUTH); assay: Post-emergence herbicidal action against ABUTH; settings: visual rating about 3 weeks after treatment vs untreated controls (100% = plants have died, 0% = like control plants)
Outline: (§1)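 Doses of 320 g/ha or lower, suffixes a, b and c marking different dosages, were applied post-emergence at the one-leaf stage in 600 l/ha water with 0.5% additive. Damage was assessed visually after about 3 weeks in the greenhouse.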

[2] = test system: Alopecurus myosuroides (ALOMY); assay: Post-emergence herbicidal action against ALOMY; settings: visual rating about 3 weeks after treatment vs untreated controls (100% = plants have died, 0% = like control plants)
Outline: as §1

[3] = test system: Amaranthus retroflexus (AMARE); assay: Post-emergence herbicidal action against AMARE
Outline: as §1

[4] = test system: Avena fatua (AVEFA); assay: Post-emergence herbicidal action against AVEFA; settings: 320 g/ha, visual rating about 3 weeks after treatment
Outline: as §1

[5] = test system: Digitaria sanguinalis (DIGSA); assay: Post-emergence herbicidal action against DIGSA; settings: visual rating about 3 weeks after treatment
Outline: as §1

[6] = test system: Echinochloa crus-galli (ECHCG); assay: Post-emergence herbicidal action against ECHCG
Outline: as §1

[7] = test system: Lolium rigidum (LOLRI); assay: Post-emergence herbicidal action against LOLRI
Outline: as §1

[8] = test system: Matricaria inodora (MATIN); assay: Post-emergence herbicidal action against MATIN
Outline: as §1

[9] = test system: Pharbitis purpurea (PHBPU); assay: Post-emergence herbicidal action against PHBPU
Outline: as §1

[10] = test system: Polygonum convolvulus (POLCO); assay: Post-emergence herbicidal action against POLCO
Outline: as §1

[11] = test system: Verconica persica (VERPE); assay: Post-emergence herbicidal action against VERPE
Outline: as §1

[12] = test system: Viola tricolor (VIOTR); assay: Post-emergence herbicidal action against VIOTR
Outline: as §1

[13] = test system: Oryza sativa (ORYSA); settings: crop plant compatibility
Outline: (§2)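 Percent effect on the crop was judged by eye against untreated controls, where 0% means like control and 100% means dead plants. Plants had been sprayed post-emergence at the one-leaf stage and then kept under optimum greenhouse conditions for about 3 weeks.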

[14] = test system: Triticum aestivum (TRZAS); settings: crop plant compatibility, 20 g/ha, effect vs untreated controls
Outline: as §2

[15] = test system: Zea mays (ZEAMX); settings: for Post-emergence action against ZEAMX in % (crop plant compatibility): 20 g/ha, effect in comparison to untreated controls; for Post-emergence action against ZEAMX in %: crop plant compatibility, effect vs untreated controls
Outline: as §2

[16] = test system: Setaria viridis (SETVI); assay: Post-emergence herbicidal action against SETVI
Outline: as §1

[17] = 80 g/ha, visual rating about 3 weeks after treatment vs untreated controls (100% = plants have died, 0% = like control plants)
[18] = 320 g/ha, visual rating about 3 weeks after treatment
[19] = 20 g/ha, effect vs untreated controls
[20] = 80 g/ha, effect in comparison to untreated controls

| Structure (SMILES) | Post-emergence action against ORYSA in % [13, 19] [%] | Post-emergence action against TRZAS in % [14] [%] | Post-emergence action against ZEAMX in % (crop plant compatibility) [15] [%] | Post-emergence action against ABUTH in % ([1]; 80 g/ha) [%] | Post-emergence action against ABUTH in % ([1]; 320 g/ha) [%] | Post-emergence action against ALOMY in % ([2]; 320 g/ha) [%] | Post-emergence action against AMARE in % [3, 18] [%] | Post-emergence action against AVEFA in % [4] [%] | Post-emergence action against DIGSA in % ([5]; 320 g/ha) [%] | Post-emergence action against ECHCG in % ([6]; dosage 320 g/ha) [%] | Post-emergence action against LOLRI in % ([7]; dosage 320 g/ha) [%] | Post-emergence action against MATIN in % ([8]; dosage 320 g/ha) [%] | Post-emergence action against PHBPU in % ([9]; dosage 320 g/ha) [%] | Post-emergence action against POLCO in % ([10]; dosage 320 g/ha) [%] | Post-emergence action against VERPE in % ([11]; 320 g/ha, VERPE) [%] | Post-emergence action against VERPE in % ([11]; dosage 80 g/ha) [%] | Post-emergence action against VIOTR in % ([12]; 80 g/ha) [%] | Post-emergence action against VIOTR in % ([12]; 320 g/ha) [%] | Post-emergence action against PHBPU in % ([9]; dosage 80 g/ha) [%] | Post-emergence action against SETVI in % ([16]; dosage 320 g/ha) [%] | also measured |
| --- | --- | --- | --- | --- | --- | --- | --- | --- | --- | --- | --- | --- | --- | --- | --- | --- | --- | --- | --- | --- | --- |
| CCOC(=O)[C@@H](C)Oc1nn(-c2ncccc2F)c(-c2cncc(F)c2)c1Cl [Example I-145] | 0 | 20 |  | 90 | 90 | 90 | 80 | 90 | 90 | 90 | 90 | 90 | 90 | 90 | 90 | 90 | 90 | 90 | 90 | 90 | Post-emergence action against ALOMY in % ([2]; 80 g/ha): 80%; Post-emergence action against AMARE in % [3, 17]: 80%; Post-emergence action against ECHCG in % ([6]; dosage 80 g/ha): 90%; Post-emergence action against LOLRI in % ([7]; dosage 80 g/ha): 90%; Post-emergence action against MATIN in % ([8]; dosage 80 g/ha): 80%; Post-emergence action against POLCO in % ([10]; dosage 80 g/ha): 90%; Post-emergence action against SETVI in % ([16]; dosage 80 g/ha): 90% |
| CCOC(=O)COc1nn(-c2ncccc2C)c(-c2cncc(F)c2)c1Cl [Example I-181] | 0 | 20 | 20 | 80 | 80 | 90 | 90 | 90 | 90 | 100 | 80 | 80 | 100 | 80 | 90 | 90 | 90 | 90 | 90 | 90 | Post-emergence action against ALOMY in % ([2]; 80 g/ha): 80%; Post-emergence action against AMARE in % [3, 17]: 80%; Post-emergence action against DIGSA in % ([5]; 80 g/ha): 90%; Post-emergence action against ECHCG in % ([6]; dosage 80 g/ha): 90%; Post-emergence action against MATIN in % ([8]; dosage 80 g/ha): 80%; Post-emergence action against POLCO in % ([10]; dosage 80 g/ha): 80%; Post-emergence action against SETVI in % ([16]; dosage 80 g/ha): 80% |
| Cc1ncccc1-n1nc(OCC(=O)OCC2CCCO2)c(Br)c1-c1cncc(F)c1 (centres unmarked) [II-43] | 0 | 10 | 0 |  | 80 | 100 | 90 | 90 | 80 | 90 |  | 80 | 90 | 80 | 90 | 90 | 90 | 90 | 80 | 90 | Post-emergence action against ORYSA in % [13, 20]: 0%; Post-emergence action against ORYSA in % ([13]; 320 g/ha, effect in comparison to untreated controls): 0%; Post-emergence action against ZEAMX in % ([15]; 80 g/ha): 20% |

The next lines start with results.

| Post-emergence action against ORYSA in % [13, 19] [%] | Post-emergence action against TRZAS in % [14] [%] | Post-emergence action against ZEAMX in % (crop plant compatibility) [15] [%] | Structure (SMILES) | Post-emergence action against ABUTH in % ([1]; 80 g/ha) [%] | Post-emergence action against ABUTH in % ([1]; 320 g/ha) [%] | Post-emergence action against ALOMY in % ([2]; 320 g/ha) [%] | Post-emergence action against AMARE in % [3, 18] [%] | Post-emergence action against AVEFA in % [4] [%] | Post-emergence action against DIGSA in % ([5]; 320 g/ha) [%] | Post-emergence action against ECHCG in % ([6]; dosage 320 g/ha) [%] | Post-emergence action against LOLRI in % ([7]; dosage 320 g/ha) [%] | Post-emergence action against MATIN in % ([8]; dosage 320 g/ha) [%] | Post-emergence action against PHBPU in % ([9]; dosage 320 g/ha) [%] | Post-emergence action against POLCO in % ([10]; dosage 320 g/ha) [%] | Post-emergence action against VERPE in % ([11]; 320 g/ha, VERPE) [%] | Post-emergence action against VERPE in % ([11]; dosage 80 g/ha) [%] | Post-emergence action against VIOTR in % ([12]; 80 g/ha) [%] | Post-emergence action against VIOTR in % ([12]; 320 g/ha) [%] | Post-emergence action against PHBPU in % ([9]; dosage 80 g/ha) [%] | Post-emergence action against SETVI in % ([16]; dosage 320 g/ha) [%] | also measured |
| --- | --- | --- | --- | --- | --- | --- | --- | --- | --- | --- | --- | --- | --- | --- | --- | --- | --- | --- | --- | --- | --- |
| 0 | 20 | 0 | COC(=O)COc1nn(-c2ncccc2F)c(-c2ccnc(F)c2)c1Br [Example I-130] | 80 | 90 | 90 | 90 | 90 | 90 | 90 | 90 | 80 | 80 | 80 | 80 | 80 | 90 | 90 |  |  | Post-emergence action against AMARE in % [3, 17]: 80%; Post-emergence action against DIGSA in % ([5]; 80 g/ha): 80%; Post-emergence action against ZEAMX in % ([15]; 80 g/ha): 0%; Post-emergence action against ZEAMX in % ([15]; 320 g/ha): 20% |
| 10 | 20 | 10 | CCOC(=O)COc1nn(-c2ccncc2F)c(-c2ccc(F)nc2)c1Br [III-29] |  | 80 | 90 |  |  | 90 | 80 | 80 | 90 | 90 | 80 | 80 |  |  |  | 80 | 90 | Post-emergence action against ECHCG in % ([6]; dosage 80 g/ha): 80%; Post-emergence action against MATIN in % ([8]; dosage 80 g/ha): 80%; Post-emergence action against ORYSA in % [13, 20]: 20% |
| 0 | 20 |  | C[C@@H](Oc1nn(-c2ncccc2F)c(-c2cncc(F)c2)c1Cl)C(=O)O [Example I-165] | 90 | 90 | 100 | 80 | 90 | 90 | 90 | 100 | 90 | 90 | 90 | 90 | 90 | 90 | 90 | 80 | 90 | Post-emergence action against DIGSA in % ([5]; 80 g/ha): 90%; Post-emergence action against ECHCG in % ([6]; dosage 80 g/ha): 90%; Post-emergence action against MATIN in % ([8]; dosage 80 g/ha): 80%; Post-emergence action against POLCO in % ([10]; dosage 80 g/ha): 80%; Post-emergence action against SETVI in % ([16]; dosage 80 g/ha): 90% |
